How the values were obtained:
URAT1 [1] = target: T1, URAT1 (Homo sapiens, UniProt Q96S37); test: Uric acid transport inhibitory test using human URAT1-expressing cells; format: cell-based; parameters: Human URAT1 full length cDNA was subcloned to expression vector pcDNA3.1; expressed in transfected cells; host or cells: HEK293 cells (pcDNA3.1, geneticin-selected); conditions: human URAT1 expressing HEK293 cells, 14C-labeled uric acid uptake 5 min, room temperature; read-out: hURAT1 (IC50, concentration necessary for inhibiting the uric acid transport rate by 50%)
T1 sequence (Q96S37 1-553): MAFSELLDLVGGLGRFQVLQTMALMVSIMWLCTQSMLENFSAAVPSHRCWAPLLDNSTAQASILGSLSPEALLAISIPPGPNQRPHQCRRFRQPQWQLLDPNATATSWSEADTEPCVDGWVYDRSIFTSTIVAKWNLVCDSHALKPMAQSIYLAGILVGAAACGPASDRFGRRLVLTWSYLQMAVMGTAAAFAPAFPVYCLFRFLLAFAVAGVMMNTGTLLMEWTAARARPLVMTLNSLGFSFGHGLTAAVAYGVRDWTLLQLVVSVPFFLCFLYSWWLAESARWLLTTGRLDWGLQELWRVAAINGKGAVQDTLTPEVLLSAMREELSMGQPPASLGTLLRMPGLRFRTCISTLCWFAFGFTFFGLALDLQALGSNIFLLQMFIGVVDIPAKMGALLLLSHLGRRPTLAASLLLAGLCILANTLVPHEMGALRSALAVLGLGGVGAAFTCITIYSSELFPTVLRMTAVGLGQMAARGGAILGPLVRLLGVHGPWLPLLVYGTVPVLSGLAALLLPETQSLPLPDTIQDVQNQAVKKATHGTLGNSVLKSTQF
Description: Human URAT1 full length cDNA was subcloned to expression vector pcDNA3.1 and human URAT1 gene was transfected into human embryonic kidney derived cell line (HEK293 cells) by liposome method using Lipofectamine2000. Simultaneously, HEK293 cells transfected with expression vector pcDNA3.1 alone (hereinafter mock cells) were also produced. HEK293 cells expressing human URAT1 gene or mock cells were selected with geneticin resistance as an index. The functional expression of human URAT1 gene was confirmed by a method similar to the following method, using transport of uric acid labeled with ^14C into the cells as an index.
Human URAT1 expressing HEK293 cells or mock cells were cultured in Dulbecco's modified Eagle's MEM medium (high glucose) containing 10% fetal bovine serum, 0.5 mg/mL geneticin sulfate, 100 units/mL penicillin and 100 μg/mL streptomycin under the conditions of 37° C. and 5% CO2 in an incubator. The cells were plated in a 96 well plate (poly-D-Lysine coated) at 1×10^5 cells/well and the following uric acid transport inhibitory test was performed 24 hr later. This test was performed at room temperature.
After the medium was removed by aspiration from each well, the cells were washed once with Hank's Balanced Salt Solution (HBSS) and preincubated with HBSS ([…]) for 5 min. HBSS was aspirated and an assay buffer (wherein NaCl in the above-mentioned HBSS had been substituted with Na-gluconate) containing various concentrations of the Example compound and a radioactive ligand (uric acid labeled with 14C; final concentration […]) was added to each well at […] and an uptake reaction was carried out for 5 min. After the reaction, the cells were washed twice with ice-cold HBSS ([…]), and Microscin ti TM 20 (PerkinElmer) was added at […]. The cells were lysed by stirring and the radioactivity of each well was measured in a liquid scintillation counter (TOP COUNT, Packard).
The uric acid transport rate (%) of the Example compound at each concentration was calculated relative to the radioactivity (difference in radioactivity between human URAT1 expressing HEK293 cells and mock cells without addition of Example compound (DMSO addition)) showing URAT1 specific uric acid transport as 100%, and the concentration (IC50) of the Example compound necessary for inhibiting the uric acid transport rate by 50% was determined. In Table-Table , “+++” means IC50 value of less than 100 nM, “++” means IC50 value of 100 nM to less than 1000 nM, and “+” means IC50 value of 1000 nM to less than 3000 nM.

CYP2C9 = target: T2, CYP2C9 (Homo sapiens, UniProt P11712); test: CYP inhibitory test using human liver microsome; format: in vitro ADME; conditions: model substrate diclofenac, 37° C. 10 min, read-out: CYP2C9 inhibition IC50
T2 construct: Human liver microsome (20 mg protein/mL, 5 μL, Xenotech LLC, purchased from Lenexa KS); tissue Xenotech LLC; host or cells: human liver microsome
T2 sequence (P11712 whole entry): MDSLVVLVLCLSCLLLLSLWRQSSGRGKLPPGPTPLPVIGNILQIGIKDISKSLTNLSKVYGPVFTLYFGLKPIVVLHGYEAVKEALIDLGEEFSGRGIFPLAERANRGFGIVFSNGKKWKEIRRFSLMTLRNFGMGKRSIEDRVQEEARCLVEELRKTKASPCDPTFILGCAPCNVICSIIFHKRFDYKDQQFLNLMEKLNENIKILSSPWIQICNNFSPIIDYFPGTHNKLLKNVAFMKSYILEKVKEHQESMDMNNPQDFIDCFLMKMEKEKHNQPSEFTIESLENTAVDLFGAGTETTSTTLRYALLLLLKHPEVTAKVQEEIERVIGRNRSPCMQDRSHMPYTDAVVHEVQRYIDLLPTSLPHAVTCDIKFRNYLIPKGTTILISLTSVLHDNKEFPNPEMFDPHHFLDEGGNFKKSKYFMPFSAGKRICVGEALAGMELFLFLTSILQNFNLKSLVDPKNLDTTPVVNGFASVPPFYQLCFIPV
Experimental: Human liver microsome (20 mg protein/mL, 5 μL, Xenotech LLC, purchased from Lenexa KS) was suspended in 100 mM potassium phosphate buffer (70 μL, pH 7.4), mixed with a solution (0.5 μL) of the Example compound dissolved in DMSO and preincubated at 37° C. for 5 min. NADPH producing system coenzyme solution (β-nicotinamide adenine dinucleotide phosphate: 5.2 mM, D-glucose-6-phosphate: 13.2 mM, magnesium chloride: 13.2 mM, glucose-6-phosphate dehydrogenase: 1.8 U/mL) 25 μL, and a model substrate (CYP3A4: midazolam 1 mM, CYP2D6: bufuralol 1 mM, CYP2C9: diclofenac 2 mM) 0.5 μL dissolved in DMSO were added to start the reaction. After incubation at 37° C. for 10 min., acetonitrile (200 μL) containing an internal standard substance (propranolol 1 μM) was added and the mixture was centrifuged (room temperature, 3000 rpm, 20 min). The amount of the metabolite produced from each model substrate in the supernatant was measured by high performance liquid chromatography/mass spectrometry (LC/MS/MS) and each CYP enzyme activity was determined. The concentration showing 50% inhibition (IC50) was calculated relative to the enzyme activity without addition of Example compound (DMSO 0.5 μL added) as 100%.

URAT1 [2] = target: T1, URAT1; parameters: host or cells: Xenopus laevis oocyte expression system; conditions: Xenopus laevis oocyte expression system; cited from earlier work

IC50 (URAT1 [1]) | IC50 (CYP2C9) | Structure (SMILES) | uric acid uptake via URAT1 (URAT1 [2])
– | 31 µM | CC(=O)Oc1c(Cl)cc(C(=O)N2CCOc3ccccc32)cc1Cl [Example 87, 2,6-dichloro-4-(2,3-dihydrobenzo[1,4]oxazine-4-carbonyl)-phenyl acetate] | –
– | > 50 µM | O=C(c1ccc(O)cc1)N1CCOc2ccccc21 [Example 88, (2,3-dihydrobenzo[1,4]oxazin-4-yl)-(4-hydroxyphenyl)-methanone] | –
– | 11 µM | O=C(c1cc(Cl)c(O)c(Cl)c1)N1CCOc2cccc(O)c21 [Example 89, (3,5-dichloro-4-hydroxyphenyl)-(5-hydroxy-2,3-dihydrobenzo[1,4]oxazin-4-yl)-methanone] | –
– | 21 µM | O=C(c1cc(Cl)c(O)c(Cl)c1)N1CCOc2c(O)cccc21 [Example 90, (3,5-dichloro-4-hydroxyphenyl)-(8-hydroxy-2,3-dihydrobenzo[1,4]oxazin-4-yl)-methanone] | –
– | > 50 µM | CCOC(=O)COc1c(Cl)cc(C(=O)N2CCOc3ccccc32)cc1Cl [Example 91, ethyl [2,6-dichloro-4-(2,3-dihydrobenzo[1,4]oxazine-4-carbonyl)phenoxy]acetate] | –
– | > 50 µM | O=C(O)COc1c(Cl)cc(C(=O)N2CCOc3ccccc32)cc1Cl [Example 92, [2,6-dichloro-4-(2,3-dihydrobenzo[1,4]oxazine-4-carbonyl)phenoxy]acetic acid] | –
100 to 1000 nM | > 50 µM | CC1COc2ccccc2N1C(=O)c1cc(Cl)c(O)c(Cl)c1 (centres unmarked) [Example 93, (3,5-dichloro-4-hydroxyphenyl)-(3-methyl-2,3-dihydrobenzo[1,4]oxazin-4-yl)-methanone] | –
100 to 1000 nM | 6 µM | CS(=O)(=O)Nc1c(Cl)cc(C(=O)N2CCOc3ccccc32)cc1Cl [Example 94, N-[2,6-dichloro-4-(2,3-dihydrobenzo[1,4]oxazine-4-carbonyl)phenyl]methanesulfonamide] | –
– | > 50 µM | O=C(c1cc(Cl)c(O)c(Cl)c1)N1CCCOc2ccccc21 [Example 95, (3,5-dichloro-4-hydroxyphenyl)-(7,8-dihydro-6H-5-oxa-9-azabenzocyclohepten-9-yl)-methanone] | –

Continued, compound first:

Structure (SMILES) | IC50 (URAT1 [1]) | IC50 (CYP2C9) | uric acid uptake via URAT1 (URAT1 [2])
O=C(c1cc(Cl)c(O)c(Cl)c1)N1CC[S+]([O-])c2ccccc21 (centres unmarked) [Example 9, (3,5-dichloro-4-hydroxyphenyl)-(1-oxo-2,3-dihydro-1H-1λ^4-benzo[1,4]thiazin-4-yl)-methanone] | 1000 to 3000 nM | 39 µM | –
Nc1c(Cl)cc(C(=O)N2CCOc3ccccc32)cc1Cl [Example 28, (4-amino-3,5-dichlorophenyl)-(2,3-dihydrobenzo[1,4]oxazin-4-yl)-methanone] | 100 to 1000 nM | 24 µM | –
O=C(c1ccc(O)c([N+](=O)[O-])c1)N1CCOc2ccccc21 [Example 75, (2,3-dihydrobenzo[1,4]oxazin-4-yl)-(4-hydroxy-3-nitrophenyl)-methanone] | – | > 50 µM | –
CC1Cc2ccccc2N1C(=O)c1cc(Cl)c(O)c(Cl)c1 (centres unmarked) [Example 76, (3,5-dichloro-4-hydroxyphenyl)-(2-methyl-2,3-dihydroindol-1-yl)-methanone] | 100 to 1000 nM | 28 µM | –
O=C(c1cc(Cl)c(O)c(Cl)c1)N1CCc2ccccc21 [Example 77, (3,5-dichloro-4-hydroxyphenyl)-(2,3-dihydroindol-1-yl)-methanone] | – | 18 µM | –
Nc1ccc2c(c1)CCN2C(=O)c1cc(Cl)c(O)c(Cl)c1 [Example 78, (5-amino-2,3-dihydroindol-1-yl)-(3,5-dichloro-4-hydroxyphenyl)-methanone] | – | 18 µM | –
O=C(c1cc(Br)c(O)c(Br)c1)N1CCOc2ccc(F)cc21 [Example 79, (3,5-dibromo-4-hydroxyphenyl)-(6-fluoro-2,3-dihydrobenzo[1,4]oxazin-4-yl)-methanone] | – | 13 µM | –
O=C(c1cc(Br)c(O)c(Br)c1)N1CCOc2ccc3ccccc3c21 [Example 80, (3,5-dibromo-4-hydroxyphenyl)-(2,3-dihydronaphtho[2,1-b][1,4]oxazin-1-yl)-methanone] | – | 5 µM | –
Cc1ccc2c(c1)N(C(=O)c1cc(Br)c(O)c(Br)c1)CCO2 [Example 81, (3,5-dibromo-4-hydroxyphenyl)-(6-methyl-2,3-dihydrobenzo[1,4]oxazin-4-yl)-methanone] | – | 13 µM | –
O=C(c1cc(Br)c(O)c(Br)c1)N1CCOc2ccc(Cl)cc21 [Example 82, (6-chloro-2,3-dihydrobenzo[1,4]oxazin-4-yl)-(3,5-dibromo-4-hydroxyphenyl)-methanone] | – | 11 µM | –
CS(=O)(=O)N1CCN(C(=O)c2cc(Cl)c(O)c(Cl)c2)c2ccccc21 [Example 83, (3,5-dichloro-4-hydroxyphenyl)-(4-methanesulfonyl-3,4-dihydro-2H-quinoxalin-1-yl)-methanone] | – | > 50 µM | –
CCS(=O)(=O)c1ccc2c(c1)N(C(=O)c1cc(Cl)c(O)c(Cl)c1)CCO2 [Example 84, (3,5-dichloro-4-hydroxyphenyl)-(6-ethanesulfonyl-2,3-dihydrobenzo[1,4]oxazin-4-yl)-methanone] | – | 15 µM | –
O=C(c1cc(Cl)c(O)c(Cl)c1)N1CCOc2ccc(C(F)(F)F)cc21 [Example 85, (3,5-dichloro-4-hydroxyphenyl)-(6-trifluoromethyl-2,3-dihydrobenzo[1,4]oxazin-4-yl)-methanone] | – | 19 µM | –
COc1c(Cl)cc(C(=O)N2CCOc3ccccc32)cc1Cl [Example 86, (3,5-dichloro-4-methoxyphenyl)-(2,3-dihydrobenzo[1,4]oxazin-4-yl)-methanone] | – | > 50 µM | –
CCCN(CCC)S(=O)(=O)c1ccc(C(=O)O)cc1 [probenecid] | – | – | inhibited

— patent US20070010670A1, “Nitrogen-containing fused ring compounds and use thereof” (Japan Tobacco Inc., priority 2004, published 2007)
